From publication PMC10571761, “Transgenic Mice Expressing Functional TCRs Specific to Cardiac Myhc-α 334–352 on Both CD4 and CD8 T Cells Are Resistant to the Development of Myocarditis on C57BL/6 Genetic Background” (Cells, 2023)
Peptide text beside a SMILES is read from it.

Experiments:
[1] = biological target: T1, IA^k (Mus musculus, UniProt P01910+P06343); experiment: IA^k binding assay (DELFIA competition); conditions: soluble thrombin-cleaved IA^k; reference peptide biotinylated HEL 46–61; overnight RT; europium-labeled streptavidin, fluorescence 340/615 nm; mean ± SEM from three to five experiments, three replicates each; read-out: IC50 value, binding to IA^k molecules
T1 construct: After expressing soluble IA^k and IA^b monomers in a baculovirus system; CLIP peptide, released by thrombin cleavage (cleaved yes); made in house; host or cells: baculovirus system (insect cells; Sf9 is stated only for IA^b)

[2] = biological target: T2, IA^b (Mus musculus, UniProt P14434+P14483); experiment: IA^b binding assay (DELFIA competition); conditions: soluble thrombin-cleaved IA^b (0.35 µg); competitor 0.00001 µM to 100 µM; biotinylated OVA 323–339 (50 µM) reference; pH 7.0 phosphate; overnight RT; fluorescence 340/615 nm; three to five experiments, three replicates each; read-out: IC50 value, binding to IA^b molecules
T2 construct: IA^b constructs were designed to contain the extracellular domains of IA^b-α and IA^b-β; CLIP 88–102 ([…]) with thrombin site (cleaved yes); made in house; host or cells: Sf9 insect cells (baculovirus)
T2 sequence (P14434 24-218 limits assumed): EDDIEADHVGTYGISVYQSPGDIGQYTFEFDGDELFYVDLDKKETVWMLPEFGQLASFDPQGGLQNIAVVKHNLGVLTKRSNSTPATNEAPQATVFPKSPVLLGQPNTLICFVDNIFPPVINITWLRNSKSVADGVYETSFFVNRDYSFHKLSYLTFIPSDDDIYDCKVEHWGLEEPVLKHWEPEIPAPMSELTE
T2 sequence (P14483 28-226 limits assumed): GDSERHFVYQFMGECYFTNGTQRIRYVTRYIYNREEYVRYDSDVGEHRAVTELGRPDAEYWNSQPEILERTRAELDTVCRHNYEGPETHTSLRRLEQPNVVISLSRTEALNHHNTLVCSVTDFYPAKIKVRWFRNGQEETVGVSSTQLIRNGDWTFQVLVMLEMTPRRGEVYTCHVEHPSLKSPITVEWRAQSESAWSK
Source text: To determine the binding affinity of Myhc-α 334–352 to IA^b, soluble IA^b molecules were expressed similarly to the IA^k molecule. Briefly, IA^b constructs were designed to contain the extracellular domains of IA^b-α and IA^b-β [43]. The IA^b-β construct consisted of the class II-associated invariant chain peptide (CLIP) 88–102 (VSQMRMATPLLMRPM) and thrombin site to release the CLIP [44]. After expressing the IA^b molecules in baculovirus using Sf9 cells and purifying on an anti-IA^b affinity column (clone, M5/114) (BioXCell, West Lebanon, NH, USA), they were cleaved with thrombin to obtain empty IA^b molecules. […] In addition, anti-IA^b (10 µg/mL) was coated onto white fluorescence 96-well plates (Nunc, Rochester, NY, USA) in 0.2 M sodium phosphate buffer, pH 6.8, overnight, followed by washing and blocking with 2% casein for 2 h at 37 °C. […] Europium-labeled streptavidin was added (1 µg/mL) in dissociation-enhanced lanthanide fluorescence immunoassay (DELFIA®) buffer and then the DELFIA®-enhancement solution (Perkin Elmer, Waltham, MA, USA). Fluorescence intensities were measured at wavelengths of 340/615 nm using a VICTOR® Multilabel Plate Reader (Perkin Elmer), and IC50 values were then determined. […]

[3] = test system: A/J mice; conditions: immunization with CFA; cited from earlier work
Source text: Histologically, the disease process can be classified into lymphocytic, neutrophilic, eosinophilic, granulomatous, and giant cell myocarditis. Of these, lymphocytic myocarditis generally occurs with viral infections. Although most myocarditis-affected individuals may spontaneously recover, up to 20% of them can develop DCM, in which autoimmunity is suspected as an underlying mechanism. […] The immunogenic epitopes can be promiscuous in that they can bind multiple MHC alleles.

[4] = test system: lymphocytes from Tg mice; experiment: Cytokine analysis, lymphocytes of immunized Tg mice; assay type: cell-based, TCR transgenic mice on C57BL/6 background; conditions: control peptide, two days
Protocol: Myhc-α 334–352 immunizations involved peptide/CFA emulsions containing Mycobacterium tuberculosis H37RA extract (Difco Laboratories, Detroit, MI, USA) with a final concentration of 5 mg/mL. The emulsions were administered subcutaneously (100 µg/mouse) in the inguinal and sternum regions on days 0 and 7. In some experiments, animals received emulsions in the left and right shoulders and on the right and left sides of the hip regions in split doses. Additionally, pertussis toxin (List Biological Laboratories, Campbell, CA, USA) was administered to animals intraperitoneally (100 ng/mouse) on days 0 and 2 after the first immunization.
Lymphocytes were obtained from wild-type (Wt) or Tg mice immunized with or without Myhc-α 334–352. […] Cytokines were analyzed using the LEGENDplex Murine Th cytokine Panel (12-plex or 13-plex; BioLegend). […] Beads were acquired by flow cytometry (FACSCalibur™), and concentrations of cytokines were determined using the LEGENDplex™ data analysis software suite (BioLegend). […]
Figure 6 Tg T cells produce mainly Th1 and Th17 cytokines. […] Cells were stimulated with or without Myhc-α 334–352 or OVA 323–339 (control) at the indicated concentrations for two days, and the culture supernatants were evaluated by cytokine bead array analysis except for IL-4, which was measured by ELISA. […]

[5] = test system: CD4 and CD8 T cells; conditions: cited from earlier work
Source text: In that direction, we sought to create TCR Tg mice specific to Myhc-α 334–352 and made a few observations. […] However, expression of Myhc-α 334–352-specific TCRs in both CD4 and CD8 T cells was not expected. To our knowledge, our Tg model is only the second such example to have been reported, with the earlier example being 1C6 Tg mice specific to myelin olig ...

[6] = test system: BALB/c mice; conditions: immunization with CFA; cited from earlier work
Source text: (§1) Histologically, the disease process can be classified into lymphocytic, neutrophilic, eosinophilic, granulomatous, and giant cell myocarditis. Of these, lymphocytic myocarditis generally occurs with viral infections. Although most myocarditis-affected individuals may spontaneously recover, up to 20% of them can develop DCM, in which autoimmunity is suspected as an underlying mechanism. Although autoantibodies for various antigens—such as cardiac myosin (Myhc), adenine nucleotide translocator (ANT), branched-chain α-ketoacid dehydrogenase kinase (BCKDk), sarcoplasmic/end ...

[7] = test system: rats; conditions: immunization with CFA; cited from earlier work
Source text: as §1

[8] = biological target: T3, cardiac myosin heavy chain (Myhc)-α peptide on I-Ak (mouse); experiment: multimer staining
T3 peptide: DSAFDVLSFTAEEKAGVYK

Question: With `CC(C)C[C@H](NC(=O)[C@@H](NC(=O)[C@H](CC(=O)O)NC(=O)[C@H](Cc1ccccc1)NC(=O)[C@H](C)NC(=O)[C@H](CO)NC(=O)[C@@H](N)CC(=O)O)C(C)C)C(=O)N[C@@H](CO)C(=O)N[C@@H](Cc1ccccc1)C(=O)N[C@H](C(=O)N[C@@H](C)C(=O)N[C@@H](CCC(=O)O)C(=O)N[C@@H](CCC(=O)O)C(=O)N[C@@H](CCCCN)C(=O)N[C@@H](C)C(=O)NCC(=O)N[C@H](C(=O)N[C@@H](Cc1ccc(O)cc1)C(=O)N[C@@H](CCCCN)C(=O)O)C(C)C)[C@@H](C)O` [Myhc-α 334–352] (H-DSAFDVLSFTAEEKAGVYK-OH) as the molecule, how does the IC50 [1] read?
Answer: 37.8 ± 10.3 µM

Question: And the IC50 [2]?
Answer: > 100 µM

Question: Which “myocarditis induction in A/J mice (in words)” value [3] does the source give for “ANT 21–40: adenine nucleotide translocator 21–40 epitope (VSKTAVAPIERVKLLLQVQH; UniProt P48962 21-40, looked up, fragment)” here?
Answer: myocarditogenic

Question: For ISQAVHAAHAEINEAGR [OVA 323–339], which “cytokine responses (in words)” value [4] is on record?
Answer: lack of cytokine responses

Question: For “MOG 35–55: myelin oligodendrocyte glycoprotein 35–55 (GPGYPIRALVGDEAELPCRIS; UniProt Q61885 35-55, looked up, fragment)”, which “T cell stimulation (in words)” value [5] is on record?
Answer: stimulate both cell types

Question: With “Myhc-α 338–348: truncated version of Myhc-α 334–352 (DVLSFTAEEKA; UniProt Q02566 338-348, looked up, fragment)” as the molecule, how does the “T cell stimulation by truncated peptide (in words)” value ([5]; A/J) read?
Answer: could stimulate both CD4 and CD8 T cells

Question: Which “myocarditis induction in BALB/c mice (in words)” value [6] does the source give for “Myhc-α 614–643: myocarditogenic epitope in BALB/c mice (SLKLMATLFSTYASADTGDSGKGKGGKKKG; UniProt Q02566 614-643, looked up, fragment)” here?
Answer: myocarditogenic

Question: Which “myocarditis induction in rats (in words)” value [7] does the source give for “Myhc-α 1304–1320: myocarditogenic epitope in rats (RGKLSYTQQMEDLKRQL; UniProt P02563 1304-1320, looked up, fragment)” here?
Answer: myocarditogenic

Question: Which “myocarditis induction in A/J mice (in words)” value [3] does the source give for “SERCA2a 971–990: sarcoplasmic/endoplasmic reticulum Ca2^+ adenosine triphosphatase 2a 971–990 epitope (KISLPVILMDETLKFVARNY; UniProt O55143 971-990, looked up, fragment)” here?
Answer: myocarditogenic

Question: Which “myocarditis induction in A/J mice (in words)” value [3] does the source give for “cTNI 105–122: cardiac troponin I 105–122 epitope (VDKVDEERYDVEAKVTKN; UniProt P48787 105-122, looked up, fragment)” here?
Answer: myocarditogenic

Question: With “β1AR 181–200: β1 adrenergic receptor 181–200 epitope (TVWAISALVSFLPILMHWWR; UniProt P34971 181-200, looked up, fragment)” as the molecule, how does the “myocarditis induction in A/J mice (in words)” value [3] read?
Answer: myocarditogenic

B1: Myhc-α 334–352-specific TCR of T cell hybridoma clone C33 (transgenic TCR of the Myhc-α 334–352 TCR Tg mice) (TCR)
alpha TRAV14-1*02 TRAJ42*01 CDR3: CAASAEGSNAKLTF
beta TRBV2*01 TRBJ2-5*01 CDR3: CASSQSLGQDTQYF
Question: Does B1 bind [8]?
Answer: recognises
